Results as given in patent US11697648B2, “Fused pyrimidine pyridinone compounds as JAK inhibitors” (THERAVANCE BIOPHARMA R&D IP, LLC, priority 2019, dated 2023).

Experiments:
JAK1 = JAK1 (Homo sapiens (Human), UniProt P23458); assay: Biochemical JAK1 kinase assay (LanthaScreen)
Protocol: (§1) Assay 1: Biochemical JAK and Tyk2 Kinase Assays
(§2) A panel of four LanthaScreen JAK biochemical assays (JAK1, 2, 3 and Tyk2) were carried in a common kinase reaction buffer (50 mM HEPES, pH 7.5, 0.01% Brij-35, 10 mM MgCl2, and 1 mM EGTA). Recombinant GST-tagged JAK enzymes and a GFP-tagged STAT1 peptide substrate were obtained from Life Technologies.
(§3) Serially or discretely diluted compounds were pre-incubated with each of the four JAK enzymes and the substrate in white 384-well microplates (Corning) at ambient temperature for 1 h. ATP was subsequently added to initiate the kinase reactions in 10 μL total volume, with 1% DMSO. […] Kinase reactions were allowed to proceed for 1 hour at ambient temperature before a 10 μL preparation of EDTA (10 mM final concentration) and Tb-anti-pSTAT1 (pTyr701) antibody (Life Technologies, 2 nM final concentration) in TR-FRET dilution buffer (Life Technologies) was added. The plates were allowed to incubate at ambient temperature for 1 h before being read on the EnVision reader (Perkin Elmer). Emission ratio signals (520 nm/495 nm) were recorded and utilized to calculate the percent inhibition values based on DMSO and background controls.
(§4) For dose-response analysis, percent inhibition data were plotted vs. compound concentrations, and IC50 values were determined from a 4-parameter robust fit model with the Prism software (GraphPad Software). Results were expressed as pIC50 (negative logarithm of IC50) and subsequently converted to pKi (negative logarithm of dissociation constant, Ki) using the Cheng-Prusoff equation.

JAK3 = JAK3 (Homo sapiens (Human), UniProt P52333); assay: Biochemical JAK3 kinase assay (LanthaScreen)
JAK3, sequence (P52333 whole entry): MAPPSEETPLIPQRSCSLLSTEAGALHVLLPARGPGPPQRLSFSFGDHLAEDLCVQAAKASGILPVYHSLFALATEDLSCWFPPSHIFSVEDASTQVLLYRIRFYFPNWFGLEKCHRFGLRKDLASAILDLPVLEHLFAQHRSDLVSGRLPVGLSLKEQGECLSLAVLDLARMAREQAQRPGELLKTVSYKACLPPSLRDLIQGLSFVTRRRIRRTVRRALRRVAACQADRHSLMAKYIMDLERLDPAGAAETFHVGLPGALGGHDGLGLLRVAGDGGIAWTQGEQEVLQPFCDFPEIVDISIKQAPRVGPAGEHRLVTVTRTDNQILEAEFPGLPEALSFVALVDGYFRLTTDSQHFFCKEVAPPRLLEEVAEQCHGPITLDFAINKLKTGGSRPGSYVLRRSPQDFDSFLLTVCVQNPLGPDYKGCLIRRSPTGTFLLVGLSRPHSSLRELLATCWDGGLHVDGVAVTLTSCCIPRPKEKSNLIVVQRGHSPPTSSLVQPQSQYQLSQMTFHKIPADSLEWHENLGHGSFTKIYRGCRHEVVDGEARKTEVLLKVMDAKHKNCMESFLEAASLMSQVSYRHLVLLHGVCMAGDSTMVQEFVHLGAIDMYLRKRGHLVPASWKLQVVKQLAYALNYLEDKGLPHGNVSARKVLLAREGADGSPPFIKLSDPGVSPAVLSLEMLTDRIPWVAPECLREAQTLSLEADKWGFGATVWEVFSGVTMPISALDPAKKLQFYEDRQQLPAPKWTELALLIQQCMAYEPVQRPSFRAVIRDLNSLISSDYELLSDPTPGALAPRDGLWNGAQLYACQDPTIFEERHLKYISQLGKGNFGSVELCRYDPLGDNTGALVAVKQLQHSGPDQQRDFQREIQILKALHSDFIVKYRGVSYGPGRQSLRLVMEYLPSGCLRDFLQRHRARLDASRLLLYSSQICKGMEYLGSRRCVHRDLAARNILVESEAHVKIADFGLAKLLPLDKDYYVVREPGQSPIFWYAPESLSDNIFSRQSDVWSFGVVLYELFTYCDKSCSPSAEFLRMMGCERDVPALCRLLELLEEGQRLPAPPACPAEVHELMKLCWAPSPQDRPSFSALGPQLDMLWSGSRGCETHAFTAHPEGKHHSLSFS
Protocol: as §1, §2, §3, §4

[1] = tested on: IL-2 stimulated STAT5 phosphorylation in Tall-1 human T cell line (JAK3); assay: Cellular JAK3 potency assay: inhibition of IL-2 stimulated pSTAT5 in Tall-1 T cells; type: cell-based
Protocol: Assay 2: Cellular JAK3 Potency Assay: Inhibition of IL-2 Stimulated pSTAT5 in Tall-1 T Cells
The potency of test compounds for inhibition of interleukin-2 (IL-2) stimulated STAT5 phosphorylation was measured in the Tall-1 human T cell line (DSMZ) using AlphaLisa. Because IL-2 signals through JAK3, this assay provides a measure of JAK3 cellular potency.
Phosphorylated STAT5 was measured via the AlphaLISA SureFire Ultra pSTAT5 (Tyr694/699) kit (PerkinElmer).
Human T cells from the Tall-1 cell line were cultured in a 37° C., 5% CO2 humidified incubator in RPMI (Life Technologies) supplemented with 15% Heat Inactivated Fetal Bovine Serum (FBS, Life Technologies), 2 mM Glutamax (Life Technologies), 25 mM HEPES (Life Technologies) and 1× Pen/Strep (Life Technologies). Compounds were serially diluted in DMSO and dispensed acoustically to empty wells. Assay media (phenol red-free DMEM (Life Technologies) supplemented with 10% FBS (ATCC)) was dispensed (4 μL/well) and plates shaken at 900 rpm for 10 inns. Cells were seeded at 45,000 cells/well in assay media (4 μL/well), and incubated at 37° C., 5% CO2 for 1 hour, followed by the addition of IL-2 (R&D Systems; final concentration 300 ng/ml) in pre-warmed assay media (4 μL) for 30 minutes. After cytokine stimulation, cells were lysed with 6 ul of 3× AlphaLisa Lysis Buffer (PerkinElmer) containing 1× PhosStop and Complete tablets (Roche). The lysate was shaken at 900 rpm for 10 minutes at room temperature (RT). Phosphorylated STAT5 was measured via the pSTAT5 AlphaLisa kit (PerkinElmer). Freshly prepared acceptor bead mixture was dispensed onto lysate (5 μL) under green filtered <100 lux light. Plates were shaken at 900 rpm for 2 mins, briefly spun down, and incubated for 2 hrs at RT in the dark. Donor beads were dispensed (5 μL) under green filtered <100 lux light. Plates were shaken at 900 rpm for 2 minutes, briefly spun down, and incubated overnight at RT in the dark. Luminescence was measured with excitation at 689 nm and emission at 570 nm using an EnVision plate reader (PerkinElmer) under green filtered <100 lux light.
To determine the inhibitory potency of test compounds in response to IL-2, the average emission intensity of beads bound to pSTAT5 was measured in a human T cell line. IC50 values were determined from analysis of the inhibition curves of signal intensity versus compound concentration. Data are expressed as pIC50 (negative decadic logarithm IC50) values (mean standard deviation).

[2] = selectivity JAK3 over JAK1, difference of pKi
[3] = IL-2 stimulated pSTAT5, Tall-1 T cells
[4] = selectivity, difference of pKi values
[5] = IL-2 stimulated pSTAT5 in Tall-1 T cells

JAK1, sequence (P23458 whole entry): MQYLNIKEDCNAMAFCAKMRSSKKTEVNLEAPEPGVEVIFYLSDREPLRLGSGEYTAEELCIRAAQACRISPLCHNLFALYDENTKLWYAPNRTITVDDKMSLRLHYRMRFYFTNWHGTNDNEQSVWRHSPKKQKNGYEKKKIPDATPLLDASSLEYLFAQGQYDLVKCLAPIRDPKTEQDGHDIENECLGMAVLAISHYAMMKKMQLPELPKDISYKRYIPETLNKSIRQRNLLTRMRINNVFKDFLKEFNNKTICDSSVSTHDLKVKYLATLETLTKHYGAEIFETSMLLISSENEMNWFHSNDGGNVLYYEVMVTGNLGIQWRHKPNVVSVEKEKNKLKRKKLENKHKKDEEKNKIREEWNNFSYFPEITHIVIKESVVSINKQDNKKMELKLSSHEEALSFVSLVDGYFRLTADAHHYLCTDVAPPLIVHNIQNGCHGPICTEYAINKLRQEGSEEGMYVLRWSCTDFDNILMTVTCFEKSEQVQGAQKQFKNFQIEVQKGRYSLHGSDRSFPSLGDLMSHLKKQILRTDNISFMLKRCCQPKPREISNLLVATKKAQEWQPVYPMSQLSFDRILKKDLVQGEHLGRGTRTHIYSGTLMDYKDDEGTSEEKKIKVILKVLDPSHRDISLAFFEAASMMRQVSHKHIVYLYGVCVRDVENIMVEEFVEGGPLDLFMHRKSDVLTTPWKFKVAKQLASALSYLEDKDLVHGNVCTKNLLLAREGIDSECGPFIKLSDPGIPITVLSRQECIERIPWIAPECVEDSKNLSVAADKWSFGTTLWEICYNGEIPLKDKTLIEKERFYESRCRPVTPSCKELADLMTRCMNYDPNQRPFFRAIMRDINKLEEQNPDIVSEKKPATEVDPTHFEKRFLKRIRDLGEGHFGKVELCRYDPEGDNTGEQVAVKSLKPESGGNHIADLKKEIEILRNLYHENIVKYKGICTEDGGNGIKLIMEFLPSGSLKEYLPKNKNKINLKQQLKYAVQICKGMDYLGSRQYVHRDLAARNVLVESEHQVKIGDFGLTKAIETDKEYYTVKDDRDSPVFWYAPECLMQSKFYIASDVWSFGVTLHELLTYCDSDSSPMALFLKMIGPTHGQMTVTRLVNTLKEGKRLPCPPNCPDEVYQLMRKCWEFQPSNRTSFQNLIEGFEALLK

SMILES	JAK 1 (pKi) (JAK1)	JAK 3 (pKi) (JAK3)	JAK3 (pKi)-JAK1 (pKi) (JAK3; [2])	Tall-1 (pIC50) [1, 3]	JAK3 (pKi)-JAK1 (pKi) (JAK3; [4])	Tall-1 (pIC50) [1, 5]
C=CC(=O)N1CC(CCn2c(=O)ccc3cnc(Nc4cnn(CCOC)c4)nc32)C1 [Example 21]	E (E represents a pKi value of 7 or below (Ki of 100 nM or above))	B (B represents pKi value between 9 and 10 (Ki between 1 nM and 0.1 nM))	A (A represents a value of 3 or above)	C (C represents a pIC50 value between 6 and 6.7 (IC50 between 1 μM and 200 nM))		
C=CC(=O)N1CC(CCn2c(=O)ccc3cnc(Nc4cnn(CCN(C)C)c4)nc32)C1 [Example 22]	E (E represents a pKi value of 7 or below (Ki of 100 nM or above))	B (B represents pKi value between 9 and 10 (Ki between 1 nM and 0.1 nM))	A (A represents a value of 3 or above)	C (C represents a pIC50 value between 6 and 6.7 (IC50 between 1 μM and 200 nM))		
C=CC(=O)N1CC(CCn2c(=O)ccc3cnc(Nc4ccc(N5CCOCC5)cn4)nc32)C1 [Example 29]	E (E represents a pKi value of 7 or below (Ki of 100 nM or above))	B (B represents pKi value between 9 and 10 (Ki between 1 nM and 0.1 nM))	A (A represents a value of 3 or above)	C (C represents a pIC50 value between 6 and 6.7 (IC50 between 1 μM and 200 nM))		
C=CC(=O)N1CCN(CCn2c(=O)ccc3cnc(Nc4ccccc4)nc32)CC1 [Example 40]	E (E represents a pKi value of 7 or below (Ki of 100 nM or above))	B (B represents pKi value between 9 and 10 (Ki between 1 nM and 0.1 nM))	A (A represents a value of 3 or above)	C (C represents a pIC50 value between 6 and 6.7 (IC50 between 1 μM and 200 nM))		
C=CC(=O)N1CCN(CCn2c(=O)ccc3cnc(Nc4ccc(N5CCOCC5)c(F)c4)nc32)CC1 [Example 41]	E (E represents a pKi value of 7 or below (Ki of 100 nM or above))	B (B represents pKi value between 9 and 10 (Ki between 1 nM and 0.1 nM))	A (A represents a value of 3 or above)	C (C represents a pIC50 value between 6 and 6.7 (IC50 between 1 μM and 200 nM))		
C=CC(=O)N1CCN(CCn2c(=O)ccc3cnc(Nc4cnn(CCOC(C)C)c4)nc32)CC1 [Example 42]	E (E represents a pKi value of 7 or below (Ki of 100 nM or above))	B (B represents pKi value between 9 and 10 (Ki between 1 nM and 0.1 nM))	A (A represents a value of 3 or above)	C (C represents a pIC50 value between 6 and 6.7 (IC50 between 1 μM and 200 nM))		
C=CC(=O)N1CCN(CCn2c(=O)ccc3cnc(Nc4cnn(C5CCN(C)CC5)c4)nc32)CC1 [Example 43]	E (E represents a pKi value of 7 or below (Ki of 100 nM or above))	B (B represents pKi value between 9 and 10 (Ki between 1 nM and 0.1 nM))	A (A represents a value of 3 or above)	C (C represents a pIC50 value between 6 and 6.7 (IC50 between 1 μM and 200 nM))		
C=CC(=O)N1CCN(CCn2c(=O)ccc3cnc(Nc4ccc(N5CCN(C6CC6)CC5)cc4)nc32)CC1 [Example 50]	E (E represents a pKi value of 7 or below (Ki of 100 nM or above))	B (B represents pKi value between 9 and 10 (Ki between 1 nM and 0.1 nM))	A (A represents a value of 3 or above)	C (C represents a pIC50 value between 6 and 6.7 (IC50 between 1 μM and 200 nM))		
C=CC(=O)N1CCN(CCn2c(=O)ccc3cnc(Nc4ccc(N5C[C@@H](C)N(C)[C@H](C)C5)cc4)nc32)[C@@H](C)C1 [Example 199]	E (E represents a pKi value of 7 or below (Ki of 100 nM or above))	B (B represents pKi value between 9 and 10 (Ki between 1 nM and 0.1 nM))	A (A represents a value of 3 or above)	A (A represents a pIC50 value≥7.5 (IC50≤32 nM))		
C=CC(=O)N1CCN(C(C)Cn2c(=O)ccc3cnc(Nc4ccc(N5CCN(C)CC5)cc4)nc32)CC1 (centres unmarked) [Example 218]	E (E represents a pKi value of 7 or below (Ki of 100 nM or above))	C (C represents a pKi value between 8 and 9 (Ki between 10 nM and 1 nM))	B (B represents a value of 2.5 to 3)	C (C represents a pIC50 value between 6 and 6.7 (IC50 between 1 μM and 200 nM))		
C=CC(=O)N1CCN(CCn2c(=O)ccc3cnc(Nc4ccc(N5C[C@@H](C)N(C)[C@@H](C)C5)cc4)nc32)[C@@H](CC)C1 [Example 222]	E (E represents a pKi value of 7 or below (Ki of 100 nM or above))	B (B represents pKi value between 9 and 10 (Ki between 1 nM and 0.1 nM))	A (A represents a value of 3 or above)	A (A represents a pIC50 value≥7.5 (IC50≤32 nM))		
C=CC(=O)N1CC(CCn2c(=O)ccc3cnc(Nc4ccc(N5C[C@@H](C)N(C)C[C@@H]5C)cc4)nc32)C1 [Example 253]	E (E represents a pKi value of 7 or below (Ki of 100 nM or above))	A (A represents a pKi value≥10 (Ki≤0.1 nM))			A (A represents a value of 3 or above)	B (B represents a pC50 value between 6.7 (included) and 7.5 (IC50 between 200 nM and 32 nM))
C=CC(=O)N1CC(CCn2c(=O)ccc3cnc(Nc4ccn(CC)n4)nc32)C1 [Example 254]	E (E represents a pKi value of 7 or below (Ki of 100 nM or above))	B (B represents pKi value between 9 and 10 (Ki between 1 nM and 0.1 nM))			A (A represents a value of 3 or above)	B (B represents a pC50 value between 6.7 (included) and 7.5 (IC50 between 200 nM and 32 nM))
C=CC(=O)N1CCN(CCn2c(=O)ccc3cnc(Nc4ccn(CC)n4)nc32)[C@@H](C)C1 [Example 255]	E (E represents a pKi value of 7 or below (Ki of 100 nM or above))	B (B represents pKi value between 9 and 10 (Ki between 1 nM and 0.1 nM))			A (A represents a value of 3 or above)	C (C represents a pIC50 value between 6 and 6.7 (IC50 between 1 μM and 200 nM))
